Data as given in patent publication US20150239824A1, “BRANCHED OR MACROCYCLIC POLYAMINES AND USES THEREOF” (UNIVERSITE DE STRASBOURG, priority 2012, published 2015).
“Also recorded” adds a separate entry of the source.

Key:
NIH3T3 cells [1] = assay: Cell entry of polyamines (Cy3 fluorescence, injection); type: cell-based, mouse; conditions: 100 μM, 20 min
Procedure: (§1) Polyamine compounds were dissolved in Milli-Q water to give a stock solution of 30 mM. For immunostaining and microscopy experiments, polyamine compounds were added to the cell medium at a final concentration of 100 μM, except for experiments which tested efficiency. For immunostaining experiments, NIH3T3 cells were incubated with Blebbistatin (30 μM), ML7 (10 μM), Y27632 (10 μM), Cytochalasin D (1 μM) (Sigma-Aldrich) for 30 min, LY294002 (50 μM) (Sigma-Aldrich) for 30 minutes. Latrunculin A (1.5 μM) (Sigma-Aldrich) was added for 5 min. After additional 20 min incubation with 100 μM polyamine, cells were fixed and stained.
Fluorescent images were taken in a Fluorescence Nikon Ti microscope (60× oil objective, NA 1.25) combined with a Photometrics CoolSNAP HQ2 camera and NIS acquisition software.

NIH3T3 cells [2] = assay: Growth of lamellipodia / increase in projected cell area in NIH3T3 cells; type: cell-based, mouse; conditions: 100 μM
Procedure: as §1
(§2) Increase in cell area for given time point (n=5, 10 and 20 min) was calculated by (A1n-A0)/A0, where A0 and A1n are the areas before and after polyamine addition, respectively. Kymographs for the analysis of actin retrograde flow in the lamellipodia region were performed in ImageJ. Moving features were visualized as diagonal streaks with slope depending on the velocity of movement.
(§3) Cells were fixed in 3% PFA (Sigma-Aldrich) for 17 min and then permeabilized with 0.5% Triton solution (Sigma-Aldrich) for 3 min and rinsed twice with 1× PBS. For actin and focal contacts staining, cells were incubated with Alexa 488 phalloidin (1:200, Molecular Probes) and anti-paxillin monoclonal primary antibody (1:50, BD Biosciences) for 45 min at RT. Samples were finally mounted in 50% Glycerol/1× PBS on glass slides and protected from drying. For the intermediate filaments staining, cells were quenched in NaBH4/PBS solution for 10 min at RT. Cells were incubated first with anti-vimentin (1:500, Convance) for 1 h and then with goat anti-guinea pig Dylight 594 (1:1000, Jackson) for 45 min at RT. Microtubules were fixed using methanol at −20° C. for 10 min and stained with mouse monoclonal anti-alpha tubulin (1:50, Sigma-Aldrich) for 45 min at RT.
NIH3T3 mouse fibroblast and REF52 rat embryo fibroblasts (ATCC) were cultured in DMEM supplemented with 10% calf bovine serum (BCS, Sigma-Aldrich) or fetal bovine serum (FCS, Hyclone) and 1% Pen/Streptomycin (InVitrogen). […]

NIH3T3 cells [3] = assay: Immunofluorescence of microtubule and intermediate filament organization; type: cell-based, mouse; conditions: 100 μM, 20 min
Procedure: as §3

NIH3T3 cells [4] = assay: Actin filament stability in Triton-treated cells; type: cell-based, mouse; conditions: 100 μM, then 0.1% Triton
actin = target: T1, actin (Oryctolagus cuniculus, UniProt P68135); assay: Actin assembly and bundling (light scattering, pyrenyl-actin fluorescence, electron microscopy); type: biochemical, rabbit; conditions: for bundling / polymerization of actin filaments in vitro: light scattering, neomycin vs BPA: low ionic strength (G-buffer), up to at least 100 μM
T1 construct: Actin was purified from rabbit skeletal muscle, isolated in CaATP-G-actin form by size exclusion chromatography; from tissue; host or cells: rabbit skeletal muscle
Procedure: (§4) Actin assembly was monitored using as probes the increase in light scattering intensity (310 nm, 90° angle) and in the fluorescence of pyrenyl-actin (excitation 366 nm, emission 407 nm). Measurements were made at room temperature in a Xenius Safas spectrofluorimeter. CaATP-G-actin was converted into MgATP-G-actin by addition of 20 μM MgCl2 and 0.2 mM EGTA to a solution of 10 μM CaATP-G-actin in G buffer. Polymerization was triggered by addition of MgCl2 (1 mM final), EGTA (0.2 mM final) and KCl as indicated to MgATP-G-actin. The 1:1 CaATP-actin complex was obtained by removing free ATP by two consecutive treatments of CaATP-G-actin in G buffer with 10% suspension vol/vol of Dowex-I (BioRad) in G buffer without ATP.
(§5) Actin was purified from rabbit skeletal muscle, isolated in CaATP-G-actin form by size exclusion chromatography in G buffer (5 mM Tris-Cl—, pH 7.8, 0.1 mM CaCl2, 0.2 mM ATP, 1 mM DTT, 0.01% NaN3) and pyrenyl-labeled as described^1. Human gelsolin, mouse profilin, mouse Capping Protein and human ADF were bacterial recombinant proteins, and Arp2/3 was purified from bovine brain as described in Egile et al.^39. His6-tagged human N-WASP was expressed in sf9 cells using the baculovirus expression system and purified as described^39. Spectrin-actin seeds were isolated and purified from human blood cells^40.
Electron microscopy observation of actin assemblies in the presence of C7N6 MPA was performed using a Philips CM12 electron microscope at 80 kV. Samples containing actin (2 μM) in either in G or F form and C7N6 MPA were prepared and placed on glow-discharged carbon-coated grids.

[5] = target: T2, actin filament barbed ends (Oryctolagus cuniculus, UniProt P68135); assay: Seeded barbed end growth assay (spectrin-actin seeds); type: biochemical, rabbit; conditions: neomycin up to at least 100 μM
T2 construct: Actin was purified from rabbit skeletal muscle, isolated in CaATP-G-actin form by size exclusion chromatography; from tissue; host or cells: rabbit skeletal muscle
Procedure: as §4
Seeded barbed end growth assays were performed at 2.5 μM actin and 0.1 nM spectrin-actin seeds^38. Pointed end growth assays were performed similarly but using preformed gelsolin-actin complexes (2 nM final) as seeds. The initial rate of fluorescence increase was measured.
(§6) Actin was purified from rabbit skeletal muscle, isolated in CaATP-G-actin form by size exclusion chromatography in G buffer (5 mM Tris-Cl—, pH 7.8, 0.1 mM CaCl2, 0.2 mM ATP, 1 mM DTT, 0.01% NaN3) and pyrenyl-labeled as described^1. […]

F-actin = target: T3, F-actin (Oryctolagus cuniculus, UniProt P68135); assay: Critical concentration plots, free barbed ends; type: biochemical, rabbit; conditions: F-actin at steady state
T3 construct: Actin was purified from rabbit skeletal muscle, isolated in CaATP-G-actin form by size exclusion chromatography; from tissue; host or cells: rabbit skeletal muscle
Procedure: (§7) Critical concentration plots were performed by serial dilution of F-actin (10% pyrenyl-labeled) in F buffer containing the desired amounts of BPA/MPA. Pyrenyl-actin fluorescence was read after overnight incubation in the dark.
as §5

F-actin with ADF = target: T4, F-actin with ADF (Oryctolagus cuniculus, UniProt P68135); assay: ADF-induced depolymerization of gelsolin-capped filaments and sedimentation assay; type: biochemical, rabbit
T4 construct: Actin was purified from rabbit skeletal muscle, isolated in CaATP-G-actin form by size exclusion chromatography; from tissue; host or cells: rabbit skeletal muscle (actin); bacteria (ADF, gelsolin)
Excerpt: Actin-based motile processes result from site-directed initiation of actin assembly by two major signal-responsive protein machineries. WASP family proteins use the Arp2/3 complex to branch filaments at the membrane and assemble a dendritic protrusive meshwork, while formins initiate barbed-end processive assembly of actin bundles. In both cases, force is produced by barbed-end growth fueled by regulated treadmilling. Treadmilling that drives the formation of dendritic actin arrays is enhanced by the synergistic effects of capping proteins, profilin and Actin Depolymerizing Factor (ADF/cofilin). ADF is known to destabilize actin filaments, promoting a large increase in pointed end depolymerization rate, the limiting step in filament treadmilling^17. FIG. 6 Ba-c confirms that gelsolin-capped filaments depolymerize up to a maximum of 30-fold faster in the presence of ADF, in agreement with previous data^17. […] In the presence of cyclic or branched polyamines, the rate of depolymerization was much less enhanced by ADF (about three-fold at 3 μM ADF, versus 30-fold in the control without polyamines).
as §6

[6] = target: T5, N-WASP-coated beads, actin-based propulsion (Oryctolagus cuniculus, UniProt P68135); assay: Reconstituted motility assay of N-WASP-coated beads; type: biochemical; conditions: 50 μM added a few minutes after initiation of comet tail formation
T5 construct: Actin was purified from rabbit skeletal muscle, isolated in CaATP-G-actin form by size exclusion chromatography; from tissue; host or cells: rabbit skeletal muscle (actin); sf9/baculovirus (N-WASP); bacteria (ADF, profilin, Capping Protein); bovine brain (Arp2/3)
Procedure: Reconstituted motility assays were performed using 2 μm diameter carboxylated polystyrene beads functionalized with N-WASP (170 nM, 2 hours, followed by 1% BSA neutralization for 20 min)^19. Beads were placed in a reconstituted motility mix containing 7.5 μM F-actin, 75 nM Capping Protein, 2 μM profilin, 7 μM ADF, 75 nM Arp2/3 complex in × buffer (10mM HEPES, 0.1M KCl, 1 mM MgCl2, 0.1 mM CaCl2, 1 mM ATP, 7 mM DTT, 1.5 mM DABCO at pH 7.8, 0.5% BSA and 0.2% methylcellulose). C8N6 BPA was then added at 50 μM. Observations were made using a phase contrast Olympus AX70 microscope controlled by MetaMorph 6.3r7 with CCD camera and 20× phase objective. Data analysis was performed to extract bead velocity with ImageJ software. Bead velocity was measured and averaged on 10-15 beads.
as §5

REF 52 cell = assay: Actin retrograde flow in lamellipodia; type: cell-based, rat; conditions: lamellipodia region, kymographs, n=6 cells
Procedure: as §2
NIH3T3 mouse fibroblast and REF52 rat embryo fibroblasts (ATCC) were cultured in DMEM supplemented with 10% calf bovine serum (BCS, Sigma-Aldrich) or fetal bovine serum (FCS, Hyclone) and 1% Pen/Streptomycin (InVitrogen). Cells were grown at 37° C. and 5% CO2. For microscopy and immunostaining, cells were trypsinized (0.25% Trypsin-EDTA, InVitrogen), centrifuged and plated on glass coverslips. For live cell observation, Leibovitz's L-15 1× medium (InVitrogen) supplemented with 10% serum (FCS for REF52 and BCS for NIH3T3 cells) and 1% antibiotics was used.
For retrograde flow experiments, surfaces were coated with poly-lysine (Sigma-Aldrich) as described in Verkhovsky et al.^20.
Actin retrograde flow velocity experiments were performed in a Leica DM 2500 Microscope with a 100× oil objective at 37° C. Data acquisition was 1 image/5 sec.

[7] = target: T6, actin with Capping Protein (Oryctolagus cuniculus, UniProt P68135); assay: Critical concentration and steady-state F-actin in the presence of Capping Protein; type: biochemical, rabbit; conditions: 100 μM, 1 μM total actin
T6 construct: Actin was purified from rabbit skeletal muscle, isolated in CaATP-G-actin form by size exclusion chromatography; from tissue; host or cells: rabbit skeletal muscle (actin); bacteria (Capping Protein)
Procedure: as §7, §5

CC[N+](CC)(CC)CCC[N+]1=C(/C=C/C=C2/N(CCCCCC(=O)NCCCN(CCCN)CCCCCCCCN(CCCN)CCCN)c3ccccc3C2(C)C)C(C)(C)c2ccccc21 [C8N6 BPA-Cy3]
entry into cells (NIH3T3 cells [1]): the polyamines enter the cells | entry into cells (NIH3T3 cells [1]; listed as Cy3-labeled C8N6 BPA): entered the cell and displayed the same effect as the unlabeled C8N6 BPA; also recorded: the polyamines enter the cells

NCCCN(CCCN)CCCCCCCCN(CCCN)CCCN [C8N6 BPA]
focal contacts (paxillin immunofluorescence) (NIH3T3 cells [2]; 20 min): exhibited the expected distribution and shapes of focal contacts | actin bundles within the lamellipodial array (NIH3T3 cells [2]; 20 min, actin staining): bundles of actin arranged in microspikes were observed | growth of lamellipodia (NIH3T3 cells [2]; NIH3T3 cells, compound added to the cell culture medium): promote growth of lamellipodia | organization of microtubules and intermediate filaments (NIH3T3 cells [3]): no effect on microtubules and intermediate filaments organization | stabilization of actin filaments in Triton-treated cells (NIH3T3 cells [4]): stabilizes actin filaments in Triton-treated cells like Jasplakinolide | assembly of actin at physiological ionic strength (actin; 1 mM MgCl2, 0.1 M KCl): induced assembly of actin | bundling / polymerization of actin filaments in vitro (actin): induce ATP sensitive bundling of actin filaments | bundling / polymerization of actin filaments in vitro (actin; listed as BPA): massive bundling is induced | inhibition of barbed-end growth [5]: inhibition | critical concentration for filament assembly (F-actin): not significantly affected | critical concentration for filament assembly (F-actin; listed as BPA): strictly superimposable | ADF-induced increase in rate of F-actin depolymerization (F-actin with ADF; gelsolin-capped filaments): greatly weakened | steady state of actin assembly in the presence of ADF (F-actin with ADF; sedimentation, F-actin 3 μM, 0.3 mM polyamine, one hour): practically unaffected; also recorded: not affected | propulsion rate of N-WASP-coated beads [6]: dramatic decrease in propulsion rate | actin retrograde flow velocity (REF 52 cell): clear reduction in the actin retrograde flow | nucleation / short polymers in the presence of capping protein [7]: enhance nucleation by capping proteins | nucleation / short polymers in the presence of capping protein ([7]; listed as BPA): stabilizes a greater number of short polymers in the presence of capping protein

neomycin [reference compound]
bundling / polymerization of actin filaments in vitro (actin): does not induce bundling of actin; also recorded: does not promote polymerization of actin | inhibition of barbed-end growth [5]: does not inhibit barbed-end growth; also recorded: not inhibited
